Source: ChEMBL document CHEMBL1128624, “Syntheses of -, -monoglycosylceramides and four diastereomers of an -galactosylceramide” (Bioorg Med Chem Lett, 1995)
Active and inactive are the calls of the source. The rule behind the calls is not given here.

species on record: Mus musculus; experiment: Antitumor activity against B16-melanoma bearing mice; active; format: functional, organism-based

Compound | Activity
CCCCCCCCCCCCCCCCCCCCCC[C@@H](O)C(=O)N[C@@H](CO[C@H]1O[C@@H](CO)[C@H](O)[C@H](O)[C@@H]1O)[C@H](O)[C@H](O)CCCCCCCCCCCC | Active
CCCCCCCCCCCCCCCCCCCCCC[C@@H](O)C(=O)N[C@@H](CO[C@H]1O[C@@H](CO)[C@H](O)[C@H](O)[C@@H]1O)[C@H](O)[C@H](O)CCCCCCCCCCCC(C)C | Active
CCCCCCCCCCCCCCCCCCCCCC[C@@H](O)C(=O)N[C@@H](CO[C@H]1O[C@@H](CO)[C@H](O)[C@H](O)[C@@H]1O)[C@H](O)[C@H](O)CCCCCCCCCCCC(C)CC (some centres undefined) | Active
CCCCCCCCCCCCCCCCCCCCCCC[C@@H](O)C(=O)N[C@@H](CO[C@H]1O[C@@H](CO)[C@H](O)[C@H](O)[C@@H]1O)[C@H](O)[C@H](O)CCCCCCCCCCCC(C)CC (some centres undefined) | Active
